Results taken from ChEMBL document CHEMBL5338722, “Optical-Controlled Kinetic Switch: Fine-Tuning of the Residence Time of an Antagonist Binding to the Vasopressin V2 Receptor in In Vitro, Ex Vivo, and In Vivo Models of ADPKD” (J Med Chem, 2023).

Key:
Vasopressin V2 receptor [1] = molecular target: T1, Vasopressin V2 receptor (Homo sapiens, UniProt P30518); assay: Displacement of conivaptan-red fluorescent probe from SNAP-tagged human vasopressin V2 receptor expressed in HEK293 cells compound pre-illuminated for 10 mins with light at 435 nm and further incubated for 1 hr by HTRF assay; assay type: cell-based
Vasopressin V2 receptor [2] = molecular target: T1, Vasopressin V2 receptor; assay: Displacement of conivaptan-red fluorescent probe from SNAP-tagged human vasopressin V2 receptor expressed in HEK293 cells compound pre-illuminated for 10 mins with light at 365 nm and further incubated for 1 hr by HTRF assay; assay type: cell-based

T1 sequence (P30518 whole entry): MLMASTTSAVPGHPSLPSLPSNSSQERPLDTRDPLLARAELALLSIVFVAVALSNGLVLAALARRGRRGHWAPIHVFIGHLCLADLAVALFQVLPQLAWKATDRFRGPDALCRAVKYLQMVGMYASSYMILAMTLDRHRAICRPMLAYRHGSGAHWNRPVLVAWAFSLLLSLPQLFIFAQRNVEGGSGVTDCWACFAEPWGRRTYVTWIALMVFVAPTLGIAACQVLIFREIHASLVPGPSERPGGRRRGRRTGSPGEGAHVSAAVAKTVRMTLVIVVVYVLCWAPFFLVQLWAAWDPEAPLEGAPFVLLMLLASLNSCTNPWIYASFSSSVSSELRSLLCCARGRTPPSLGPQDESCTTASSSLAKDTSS

Row | Structure (SMILES) | Ki (Vasopressin V2 receptor [1]) | Ki (Vasopressin V2 receptor [2])
1 | Cc1ccc(F)cc1/N=N/c1ccc(C(=O)N2Cc3cccn3Cc3ccccc32)c(Cl)c1 | 577 nM | –
2 | Cc1ccc(F)cc1/N=N\c1ccc(C(=O)N2Cc3cccn3Cc3ccccc32)c(Cl)c1 | – | 1700 nM
3 | Cc1cccc(/N=N/c2ccc(C(=O)N3Cc4cccn4Cc4ccccc43)c(Cl)c2)c1 | 355 nM | –
4 | O=C(c1ccc(/N=N\c2ccc(C(F)(F)F)cc2)cc1Cl)N1Cc2cccn2Cc2ccccc21 | – | 5280 nM

Continued, values first:

Row | Ki (Vasopressin V2 receptor [1]) | Ki (Vasopressin V2 receptor [2]) | Structure (SMILES)
5 | 432 nM | – | Cc1ccccc1/N=N/c1ccc(C(=O)N2Cc3cccn3Cc3ccccc32)c(Cl)c1
6 | – | 289 nM | O=C(c1ccc(/N=N\c2ccc(F)cc2)cc1Cl)N1Cc2cccn2Cc2ccccc21
7 | – | 93 nM | O=C(c1ccc(/N=N\c2ccccc2)cc1Cl)N1Cc2cccn2Cc2ccccc21
8 | – | 1240 nM | Cc1ccccc1/N=N\c1ccc(C(=O)N2Cc3cccn3Cc3ccccc32)c(Cl)c1
9 | 279 nM | – | O=C(c1ccc(/N=N/c2ccccc2-c2ccccc2)cc1Cl)N1Cc2cccn2Cc2ccccc21
10 | 2180 nM | – | O=C(c1ccc(/N=N/c2cccc(-c3ccccc3)c2)cc1Cl)N1Cc2cccn2Cc2ccccc21
